Reference: US7799969B2, “Methods for cloning rats by nuclear transfer” (Institut National de la Recherche Agronomique, priority 2003, dated 2010)
Where a SMILES comes first, the peptide text is derived from it. The star is where a group is joined. Cbz = O=C(OCc1ccccc1)*

Tests used:
[1] = tested on: rat embryos reconstructed from ovocytes; assay: Rate of foetal development of rat embryos reconstructed from ovocytes previously exposed to a proteasome inhibitor; format: in vivo
Description: By the method according to the invention, the ovocytes are transferred to a medium not containing inhibitor(s) right before conducting the reconstruction of the embryos. This makes it possible to avoid direct exposure of the nucleus donor cells to their action. Reconstruction of the embryos must then be carried out very rapidly before proteasome becomes functional again in order to avoid a premature activation of the ovocyte. The purpose of this rapid reconstruction is to […] the period during which the condensed chromatin of the nucleus is directly exposed to the ovocyte factors which make possible the reprogramming of the activity of the foreign nucleus. It then becomes possible to reconstitute a greater number of embryos during a given time period, and therefore to increase the number of transplanted embryos per recipient female for in vivo development. This possibility makes it possible to get around the low rate of implantation observed in the rat after transfer of a nucleus (table 4).
These foetuses may give rise to viable baby rats (table 4).
Set up the retention and enucleation-injection pipettes on their respective pipette holders. • 5. Position the pipettes so that their ends are horizontal, i.e., parallel to the coverglass of the micromanipulation chamber, and facing each other. • 6. Transfer the ovocytes and the cells to the micro-injection chamber by means of a pipette for manipulation of the ovocytes. • 7. Maintain an ovocyte on the maintenance pipette in order that the deformation of the plasma membrane under which the ovocyte metaphase is situated, is situated between 2 and 3 hr or between 3 and 4 hr. • 8. Apply the enucleation-injection pipette to the pellucid area at 3 hr. Verify that the pipette is in exactly the same plane as the pellucid area. Gently aspirate the pellucid area and activate the piezo system (setting 1) to puncture it. When the system is perfectly adjusted the pellucid area is punctured in a few seconds according to a perfect punch. • 9. Next, aspirate a cell whose morphology corresponds to the sought-for criteria into the enucleation-injection pipette and break its plasma membrane by several to-and-fro's in the pipette or by means of the piezo-Drill (a few impulsions are sufficient at setting 2). Maintain the cell close to the end of the micropipette. • 10. Penetrate into the perivitelline space of the ovocyte through the previously punctured orifice, apply the pipette against the plasma membrane and push the donor cell back to the end of the pipette and then push the pipette in up to the opposite end of the ovocyte without, however, reaching the plasma membrane opposite. • 11. Break the plasma membrane by means of one or more impulsions (1 to 3) of the Piezo-Drill (setting 2). • 12. Inject the cell into the cytoplasm of the ovocyte with the minimum possible medium. • 13. Gently withdraw the enucleation-injection pipette and re-close the ovocyte by aspirating the 2 ends of the broken plasma membrane and the ovocyte metaphase (enucleation). • 14. Transfer the reconstructed embryos into a micro-drop (50 μl) of RECMB2. • 15. Ovocyte activation is triggered or prolonged by transfer of the ovocytes to a micro-drop (20 μl) of RECMB2-BLI for a duration of activation generally between 1 and 2 hr. • 16. The ovocytes are then rinsed in 4-5 drops (50 μl) of RECMB2 to be cultured in the same medium while waiting to be transferred into a pseudogestating female or to prolong in vitro culture.

[2] = tested on: rat ovocytes; assay: Inhibition of spontaneous activation of rat ovocytes by exposure to a proteasome inhibitor; format: cell-based; settings: repeats n = 2
Description: The method according to the invention presents the advantage of strictly and reversibly controlling the ovocyte activation process by acting upstream of the biochemical processes that control activation and by preventing the degradation of the macromolecular compounds responsible for arrest of the ovocyte in metaphase and in particular of the cyclins. In order to do this, the ovocyte is exposed in vitro to one or more inhibitor(s) of proteasome, a key organelle of the cell: inhibition of its proteolytic action on the cyclins makes it possible to maintain an elevated level of MPF kinasic activity which determines metaphase arrest. The majority of ovocytes may thus be maintained in metaphase of the second meiotic division for several hours after their harvest (table 1).
Solutions: • Medium M2 (Hogan & al, 1994 In: Manipulating the Mouse Embryo) • Medium RECMB2*-MG132 (MG132=1.25 μM) • Medium M2-Hyaluronidase-MG132 (MG132=1.25 μM; Hyaluronidase=2.5 mg/ml) • Medium M2-MG132 (MG132=5.00 μM) • *RECMB2=medium mRlECM-BSA (Oh & al. (1998) Biol. Reprod.), with BSA=4 mg/ml and NaCl=100-130 mM.
10. The “decoronised” ovocytes are transferred to a drop of culture medium RECMB2-MG132.

[3] = tested on: rat ovocytes; assay: Reversibility of the inhibition of spontaneous activation of rat ovocytes (parthenogenetic development after removal of MG132 and activation by butyrolactone); format: cell-based; settings: repeats n = 5
[4] = reconstructed embryos transferred to recipient females

For `CC(C)C[C@@H](C=O)NC(=O)[C@H](CC(C)C)NC(=O)[C@H](CC(C)C)NC(=O)OCc1ccccc1` [MG132, peptide aldehyde Cbz-LLL-H] (Cbz-Leu-Leu-Leu-aldehyde), the “No. of foetuses (%) total” value ([1]; % in brackets) was 55.9%, the “No. of foetuses (%) viable” value ([1]; % in brackets) was 47.0% and the “pregnant recipients between D12-22” value ([1]; number of recipient females) was 11. The “living at D12-D14” value ([1]; of the viable foetuses) was 11, the “living rats at term” value ([1]; of the viable foetuses) was 5 and the “No. of foetuses total” value ([1]; rat, in vivo) was 19. The “No. of foetuses viable” value ([1]; rat, in vivo) was 16, the “implantation (%)” value [1, 4] was 5.4% and the “implantation (number)” value [1, 4] was 34. The “% of activated ovocytes after collection” value ([2]; t = 0) was 0% (0/68), the “% of activated ovocytes after collection” value ([2]; t = 210 m after collection) was 33.8% (23/68) and the “% of embryos (parthenogenetic development at the morula stage)” value ([3]; t = 0 removal of MG132, exposure to MG132 for 120 min, activation by butyrolactone) was 0% (0/71). For the same molecule, the “% of embryos (parthenogenetic development at the morula stage)” value ([3]; t = 120 min, after removal of MG132 and induction of activation by butyrolactone) was 45.9% (34/74).
